Reference: PMC6547681 (Nature Communications, 2019)

Test system: BCL-2 G101V
Assay: Steady-state competition SPR against immobilised BIMBH3 peptide, BCL-2 G101V
Format: binding, human
Procedure: SPR experiments were performed as previously described. […] The lowest concentrations used in direct binding experiments were 1 nM for BIAcore 4000 and 0.1 nM for BIAcore S200 instruments, concentrations below these were below the sensitivity thresholds for the instruments. […] Direct binding experiments were fitted to a 1:1 binding site kinetic model, fitting on and off rates, in BIAevaluation software. For competition experiments steady-state responses were determined in BIAevaluation software according to the software defaults in affinity evaluation mode averaging responses for 5 sec. […] All affinity measurements were performed in at least two independent experiments using independent protein preparations.

SMILES: O=C(c1cc(-c2cc3c(cc2C(=O)N2Cc4ccccc4C[C@H]2CN2CCOCC2)OCO3)n2c1CCCC2)N(c1ccccc1)c1ccc(O)cc1 [S55746]
- S55746 binding weaker than venetoclax (BCL-2 G101V): > 10 fold
- Raw data values in Figure 3g (SPR response) (S55746 concentration 20, BCL-2 concentration 10 nM, independent experiment 1): 59.4981
- Raw data values in Figure 3g (SPR response) (S55746 concentration 20, BCL-2 concentration 10 nM, independent experiment 2): 173.158
- Raw data values in Figure 3g (SPR response) (S55746 concentration 20, BCL-2 concentration 10 nM, independent experiment 3): 34.4335
- Raw data values in Figure 3g (SPR response) (S55746 concentration 20, BCL-2 concentration 20 nM, independent experiment 1): 71.3826
- Raw data values in Figure 3g (SPR response) (S55746 concentration 20, BCL-2 concentration 20 nM, independent experiment 2): 232.183
- Raw data values in Figure 3g (SPR response) (S55746 concentration 20, BCL-2 concentration 20 nM, independent experiment 3): 41.9552
- Raw data values in Figure 3g (SPR response) (S55746 concentration 20, BCL-2 concentration 30 nM, independent experiment 1): 77.2987
- Raw data values in Figure 3g (SPR response) (S55746 concentration 20, BCL-2 concentration 30 nM, independent experiment 2): 262.629
- Raw data values in Figure 3g (SPR response) (S55746 concentration 20, BCL-2 concentration 30 nM, independent experiment 3): 45.3747
- Raw data values in Figure 3g (SPR response) (S55746 concentration 20, BCL-2 concentration 40 nM, independent experiment 1): 80.4228
- Raw data values in Figure 3g (SPR response) (S55746 concentration 20, BCL-2 concentration 40 nM, independent experiment 2): 280.533
- Raw data values in Figure 3g (SPR response) (S55746 concentration 20, BCL-2 concentration 40 nM, independent experiment 3): 47.3992
- Raw data values in Figure 3g (SPR response) (S55746 concentration 20, BCL-2 concentration 50 nM, independent experiment 1): 83.2844
- Raw data values in Figure 3g (SPR response) (S55746 concentration 20, BCL-2 concentration 50 nM, independent experiment 2): 293.102
- Raw data values in Figure 3g (SPR response) (S55746 concentration 20, BCL-2 concentration 50 nM, independent experiment 3): 48.7371
- Raw data values in Figure 3g (SPR response) (S55746 concentration 20, BCL-2 concentration 60 nM, independent experiment 1): 85.1797
- Raw data values in Figure 3g (SPR response) (S55746 concentration 20, BCL-2 concentration 60 nM, independent experiment 2): 302.908
- Raw data values in Figure 3g (SPR response) (S55746 concentration 20, BCL-2 concentration 60 nM, independent experiment 3): 49.7741
- Raw data values in Figure 3g (SPR response) (S55746 concentration 20, BCL-2 concentration 70 nM, independent experiment 1): 86.4751
- Raw data values in Figure 3g (SPR response) (S55746 concentration 20, BCL-2 concentration 70 nM, independent experiment 2): 309.956
- Raw data values in Figure 3g (SPR response) (S55746 concentration 20, BCL-2 concentration 70 nM, independent experiment 3): 50.4376
- Raw data values in Figure 3g (SPR response) (S55746 concentration 20, BCL-2 concentration 80 nM, independent experiment 1): 87.9511
- Raw data values in Figure 3g (SPR response) (S55746 concentration 20, BCL-2 concentration 80 nM, independent experiment 2): 316.608
- Raw data values in Figure 3g (SPR response) (S55746 concentration 20, BCL-2 concentration 80 nM, independent experiment 3): 51.0592
- Raw data values in Figure 3g (SPR response) (S55746 concentration 20, BCL-2 concentration 100 nM, independent experiment 1): 89.5861
- Raw data values in Figure 3g (SPR response) (S55746 concentration 20, BCL-2 concentration 100 nM, independent experiment 2): 324.599
- Raw data values in Figure 3g (SPR response) (S55746 concentration 20, BCL-2 concentration 100 nM, independent experiment 3): 51.7173
- Raw data values in Figure 3g (SPR response) (S55746 concentration 20, BCL-2 concentration 150 nM, independent experiment 1): 91.8559
- Raw data values in Figure 3g (SPR response) (S55746 concentration 20, BCL-2 concentration 150 nM, independent experiment 2): 337.351
- Raw data values in Figure 3g (SPR response) (S55746 concentration 20, BCL-2 concentration 150 nM, independent experiment 3): 52.8108
- Raw data values in Figure 3g (SPR response) (S55746 concentration 20, BCL-2 concentration 200 nM, independent experiment 1): 93.1192
- Raw data values in Figure 3g (SPR response) (S55746 concentration 20, BCL-2 concentration 250 nM, independent experiment 2): 349.701
- Raw data values in Figure 3g (SPR response) (S55746 concentration 20, BCL-2 concentration 250 nM, independent experiment 3): 53.5404
- Raw data values in Figure 3g (SPR response) (S55746 concentration 40, BCL-2 concentration 10 nM, independent experiment 1): 53.0775
- Raw data values in Figure 3g (SPR response) (S55746 concentration 40, BCL-2 concentration 10 nM, independent experiment 2): 142.314
- Raw data values in Figure 3g (SPR response) (S55746 concentration 40, BCL-2 concentration 10 nM, independent experiment 3): 29.9924
- Raw data values in Figure 3g (SPR response) (S55746 concentration 40, BCL-2 concentration 20 nM, independent experiment 1): 66.1797
- Raw data values in Figure 3g (SPR response) (S55746 concentration 40, BCL-2 concentration 20 nM, independent experiment 2): 204.771
- Raw data values in Figure 3g (SPR response) (S55746 concentration 40, BCL-2 concentration 20 nM, independent experiment 3): 38.5613
- Raw data values in Figure 3g (SPR response) (S55746 concentration 40, BCL-2 concentration 30 nM, independent experiment 1): 73.4709
- Raw data values in Figure 3g (SPR response) (S55746 concentration 40, BCL-2 concentration 30 nM, independent experiment 2): 240.258
- Raw data values in Figure 3g (SPR response) (S55746 concentration 40, BCL-2 concentration 30 nM, independent experiment 3): 42.9042
- Raw data values in Figure 3g (SPR response) (S55746 concentration 40, BCL-2 concentration 40 nM, independent experiment 1): 77.7102
- Raw data values in Figure 3g (SPR response) (S55746 concentration 40, BCL-2 concentration 40 nM, independent experiment 2): 263.387
- Raw data values in Figure 3g (SPR response) (S55746 concentration 40, BCL-2 concentration 40 nM, independent experiment 3): 45.6376
- Raw data values in Figure 3g (SPR response) (S55746 concentration 40, BCL-2 concentration 50 nM, independent experiment 1): 81.3114
- Raw data values in Figure 3g (SPR response) (S55746 concentration 40, BCL-2 concentration 50 nM, independent experiment 2): 278.636
- Raw data values in Figure 3g (SPR response) (S55746 concentration 40, BCL-2 concentration 50 nM, independent experiment 3): 47.2724
- Raw data values in Figure 3g (SPR response) (S55746 concentration 40, BCL-2 concentration 60 nM, independent experiment 1): 83.6106
- Raw data values in Figure 3g (SPR response) (S55746 concentration 40, BCL-2 concentration 60 nM, independent experiment 2): 291.594
